For nine molecules, TGI results are on record in PubChem BioAssay (NCI).

Assay in all cases: NCI-60 cell line screen, 48 h
For experiment [1], the system named is NCI-H23 lung.
Experiment [2] relates to DU-145 prostate.
Experiment [3] relates to U251 CNS.
Experiment [4] deals with IGROV1 ovarian.
The subject of experiment [5] is KM12 colon.
In experiment [6] the test system is OVCAR-5 ovarian.
In experiment [7] the test system is HCC-2998 colon.
The test system of experiment [8] is TK-10 renal.
For experiment [9], the system named is MALME-3M melanoma.
Experiment [10] relates to SK-MEL-2 melanoma.
The test system of experiment [11] is HCT-116 colon.
The test system of experiment [12] is RPMI-8226 leukemia.

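Following 48 hours of exposure in 96-well plates, responses at five concentrations were used to interpolate endpoints linearly. TGI marks complete inhibition of growth.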

Regarding `COC(=O)N1CC(=O)C(C(=O)NC23CC4CC(CC(C4)C2)C3)C1` (stereo not drawn), the TGI in experiment [1], in [2], in experiment [3], in experiment [4], in experiment [5] and in [6] was more than 100 µM in each case. In addition, the TGI in experiment [7], in experiment [8], in experiment [9], in experiment [10], in experiment [11] and in experiment [12] was more than 100 µM throughout.

Turning to `N#CC1(C#N)NC(c2ccccc2)C(C#N)(C#N)NC1c1ccccc1` (stereo not drawn), the TGI in experiment [1], in experiment [2], in [3], in [4], in experiment [5] and in experiment [6] was more than 100 µM in each case. The TGI in experiment [7], in [8], in experiment [9], in experiment [10], in [11] and in experiment [12] was more than 100 µM throughout.

`C=CC(O)(CBr)CCC(Br)C(=C)C` (stereo not drawn): the TGI in experiment [1], in experiment [2], in [3], in [4], in experiment [5] and in [6] was more than 10 µM each time. The TGI in [7], in experiment [8], in experiment [9], in experiment [10], in experiment [11] and in experiment [12] was more than 10 µM throughout.

`Cc1ccc(C2(c3ccc(Cl)cc3)c3ccccc3C3=NCCN32)cc1` (stereo not drawn): the TGI in [1] is 32 µM; in experiment [2] it was 26.1 µM; in experiment [3], 29 µM; in experiment [4], 14.9 µM; in [5], 22.8 µM; in [6], 26 µM. The TGI in experiment [7] turned out to be 18.8 µM; in experiment [8], 18.5 µM; in experiment [9], 16 µM; in [10] it was 28 µM; in [11], 10.1 µM; in experiment [12], 28.9 µM.

For `CCCNC(=S)N/N=C(\C)c1ccc(S(=O)(=O)N(C)c2ccccc2)cc1`, the TGI in experiment [1] was more than 100 µM; in experiment [2], more than 100 µM; in experiment [3], more than 78 µM; in experiment [4] it was more than 66.1 µM; in [5], more than 100 µM; in experiment [6] it was more than 100 µM. In addition, the TGI in experiment [7] was more than 100 µM; in [8], more than 91.6 µM; in [9], more than 100 µM; in experiment [10], more than 100 µM; in experiment [11], more than 100 µM; in experiment [12] it was more than 31.6 µM.

For `Cc1ccc(C(=O)Nc2ccc(CP(=O)(O)O)cc2)cc1NC(=O)c1cccc(N)c1`, the TGI in [1], in experiment [2], in experiment [3], in experiment [4], in [5] and in [6] was more than 100 µM in each case. Moreover, the TGI in [7], in experiment [8], in [9], in experiment [10], in experiment [11] and in [12] was more than 100 µM throughout.

For `COC(=O)C1CCN(C(=O)OC(C)(C)C)CC1`, the TGI in experiment [1], in experiment [2], in experiment [3], in experiment [4], in [5] and in experiment [6] was more than 100 µM each time. The TGI in [7], in experiment [8], in [9], in [10], in [11] and in [12] was more than 100 µM throughout.

In the case of `COc1cccc(/C=N/NC(=O)CSCC(=O)N/N=C/c2cccc(OC)c2OC)c1OC`, the TGI in [1], in [2], in experiment [3], in experiment [4], in [5] and in [6] was more than 100 µM each time. The TGI in experiment [7], in experiment [8], in [9], in [10], in [11] and in experiment [12] was more than 100 µM each time.

As to `COc1ccc([N+](=O)[O-])c2c(NCCCN(C)C)ccnc12`, the TGI in [1] is 6.19 µM; in experiment [2], 29.1 µM; in experiment [3], 23.6 µM; in experiment [4], 4.85 µM; in [5], 24.2 µM; in experiment [6], 42.4 µM. Also, the TGI in [7] is 6.95 µM; in experiment [8], 70.5 µM; in experiment [9], 5.62 µM; in experiment [10] it was 4.48 µM; in experiment [11] it was 22.8 µM; in [12] it was 6.53 µM.
